Read-outs that look alike come from different tables or passages of the source. Blank lines part the entries; values can stand above or below the molecule they belong to.
Assays:
[1] = test system: retinal tissue; experiment: Retina protection: morphological analysis, ET-1 induced ischemia; type: in vivo, rabbit; settings: long term ET-1 treatment; 0.5 mg (equivalent)/eye IVT
Protocol: The eyes of each animal was enucleated, cornea and crystalline were removed and the eyes was paraformaldehyde-fixed. Then samples were dehydrated with increasing alcohol concentration (50°-75°-95°-100°). After 95° alcohol treatment, the eyes were divided into two parts following a longitudinal plain from cornea to insertion of optical nerve. Thus the samples were paraffin-embedded. Section 8 μm thick were stained with Haematoxylin-Eosin. Microscopical fields were registered by digitizing camera applied a light microscope with a 20× and 40× objective. On the digitized images was performed a morphological analysis of retinal tissue.

[2] = test system: VEGF; experiment: VEGF content in aqueous humor, ET-1 induced ischemia; type: in vivo, rabbit; settings: ET-1 treated rabbits; 0.5 mg (equivalent)/eye IVT
[3] = test system: isolated rabbit thoracic aorta preparations; experiment: Assay on vascular tone (vasorelaxation of methoxamine-precontracted aortic rings); settings: for EC50: Oryctolagus cuniculus, read-out: EC50 (concentration producing 50% of the maximum relaxation)
Protocol: The ability of the compounds of the invention to induce vasorelaxation in comparison to precursor compounds was tested in vitro in isolated rabbit thoracic aorta preparations (Wanstall J. C. et al., Br. J. Pharmacol., 134:463-472, 2001). Male New Zealand rabbits (1,8-2 Kg) were used. The animals were anaesthetized with sodium thiopental (50 mg/kg, iv), sacrificed by exsanguinations and then the thorax was opened and the aorta dissected. The aortas were placed immediately in Krebs-HEPES buffer (pH 7.4; composition mM: NaCl 130.0, Kcl 3.7, […] 14.9, KH2PO4 1.2, MgSO4.7H2O 1.2, Glucose 11.0, HEPES 10.0, CaCl2.2H2O 1.6) and cut into ring segments (4-5 mm in length). Each ring was placed in a 5 ml tissue bath filled with Krebs-HEPES buffer (37° C.) aerated with 95% O2 and 5% CO2 and was then attached to a force transducer (Grass FT03), connected to a BIOPAC MP150 System for measurement of the isometric tension^2. The preparations were allowed to equilibrate for 1 h at a resting tension of 2 g with changes of the buffer every 15 minutes and then stimulated by exposure to 90 mM KCl (3 times) with intervening washings. After equilibration, the rings were precontracted submaximally with methoxamine (3 μM) and, when the contraction reach a steady state a cumulative concentration-response curve to the test compounds was obtained. The time intervals between doses were based on the time needed to reach a full a steady state response.
Responses to test compounds were expressed as a percentage of residual contraction and plotted against concentration of test compound. EC50 values (where EC50 is the concentration producing 50% of the maximum relaxation to the test compound) were interpolated from these plots.

[4] = test system: ophthalmic artery; experiment: Ocular haemodynamics (Color Doppler Imaging, Pourcelot Resistance Index) in ET-1 induced ischemia; type: in vivo, rabbit
Protocol: Haemodynamic evaluations were performed using an eco-color-doppler DynaView TM II SSD-1700 (Aloka Holding Europe AG, Milan, Italy). All animals underwent Color Doppler Imaging (CDI) investigation before ET-1 injection (T0), before the start of drug instillation (T2) and at the end of the drug treatment (T6). Special attention was devoted to the evaluation of ophthalmic and ciliary artery circulation. Blood flow velocities were measured for each vessel and the Pourcelot Resistance Index (RI) was calculated (Galassi F. et al., Acta Opht. Scand Suppl. (2000) 37-38).

[5] = test system: TNFα; experiment: TNFα content in aqueous humor (ELISA), ET-1 induced ischemia; type: in vivo, rabbit; settings: ET-1 treated rabbits; 0.5 mg (equivalent)/eye IVT
Protocol: (§1) Aqueous humor samples were withdrawn from both anterior and posterior chamber fluids of each eye before ET-1 administration (T0), before the administration of Compound (1) or fluorocinolone acetonide (T2), and at the end of treatments (T6). The same volume of saline were reintroduced every time. The aqueous humor samples were immediately frozen at −80° C. until use.
(§2) Tumor necrosis factor (TNFα) and interleukin 6 (IL-6) were determined in aqueous humor with a commercial kit using an ELISA method (Amersham Pharmacia Biotech). The minimum detectable concentrations were 0.10 pg/ml for IL-6 and TNFα. The interassay coefficient of variation was 0.7% for all assays.

[6] = test system: IL-6; experiment: IL-6 content in aqueous humor (ELISA), ET-1 induced ischemia; type: in vivo, rabbit; settings: ET-1 treated rabbits; 0.5 mg (equivalent)/eye IVT
Protocol: as §1, §2

[7] = test system: VEGF-induced leakage rat model; experiment: VEGF-induced retinal vascular leakage rat model (Evans blue); type: in vivo; settings: VEGF 100 ng/eye
Protocol: Pupils were dilated with 1% topical cyclopentolate hydrochloride to see the needle to guide the intravitreal injection. Recombinant rat vascular endothelial growth factor (VEGF; 100 ng/eye) or VEGF at 100 ng/eye plus test compounds were prepared in 0.5% carboxymethyl cellulose (CMC) in sterile saline and was injected into the vitreous with a 30-gauge needle (Xu, Q., et al. Invest. Ophthalmol. Vis. Sci., 42:789-794, 2001). The compounds of the invention were compared to corresponding steroid cores at equimolar doses. […] Control animals received vehicle. Compound (18) was similarly dosed alongside triamcinolone acetonide for comparison.
Retinal vascular leakage was measured as described previously (Xu, Q., et al. Invest. Ophthalmol. Vis. Sci., 42:789-794, 2001). After about 18 hours post injection of test compounds, rats were anesthetized with ketamine (80 mg/kg) and xylazine (4 mg/kg) IP. Then 45 mg/kg Evans blue (EB) was injected into the jugular vein. The dye was allowed to circulate for 2 hours. The chest cavity was opened and rats then perfused with 1% formalin in 0.5 M citrate buffer (pH 3.5, 37° C.) through the left ventricle. Retinas were carefully dissected from enucleated eyes, placed in pre-weighed Eppendorf tubes, dried in speed vacuum overnight and dry weights recorded. Evans blue was extracted by incubating each retina in 120 μl formamide for 18 hours at 70° C., centrifuged for 2 hours at 6000 rpm. Absorbance of 60 μl of extract was measured at 620 nm and background absorbance was determined at 740 nm. Net absorbance was calculated by subtracting the background 740 nm from that at 620 nm. Measurement of a standard curve of Evans blue in formamide was also done and Evans blue leakage expressed as μl/g/h was calculated as shown below: [EB(ng/ml)×120 (μl)×1000]/[dry weight retina (mg)×circulation time (h)×plasma EB(ng/ml)×100]

[8] = test system: Brown Norway rats; experiment: Steroid-induced intraocular pressure (IOP) elevation in rats after intravitreal injection; settings: 39.1 μg/eye (25 μg/eye equivalent) intravitreal
Text: Male Brown Norway rats (250-275 g; Charles River laboratory) were acclimated for a week before IOP measurements. Baseline IOP measurements with Tonolab Tonometer (Tiolat Inc) were done in conscious rats (Pease, M. E., et al J. Glaucoma, 15:512-519, 2006) before intravitreal injection of test compounds. Then the rats were anesthetized with isoflurane inhalation and a drop of 0.5% tetracaine was topically applied on the eyes. Pupils were dilated with 1% topical cyclopentolate hydrochloride and 2.5% phenylephrine HCl to see the needle to aim the intravitreal injection of test compounds. […] For example, to compare to fluocinolone acetonide at both 25 and 50 μg/eye, compound (1) was dosed at 42.4 and 84.7 μg/eye, respectively. The des-nitro analog of compound (1) was dosed at 39.1 μg/eye (equivalent for 25 μg FC). Control animals received vehicle.
Five measurements were averaged for each time point. IOP measurements were taken at one and two weeks after intravitreal injection of test compounds.

[9] = rabbit aortic rings precontracted with methoxamine 3 μM

SMILES: COc1cc(C(=O)OCCCCO[N+](=O)[O-])ccc1OC(=O)OCC(=O)[C@@]12OC(C)(C)O[C@@H]1CC1C3C[C@H](F)C4=CC(=O)C=C[C@]4(C)[C@@]3(F)[C@@H](O)C[C@@]12C (stereo partly drawn) [Compound (1), 4-(nitrooxy)butyl 4-((2-((6S,9R,10S,11S,13S,16R,17S)-6,9-difluoro-11-hydroxy-16,17-16,17-(1-methylethylidenebis(oxy))-10,13-dimethyl-3-oxo-6,7,8,9,10,11,12,13,14,15,16,17-dodecahydro-3H-cyclopenta[a]phenanthren-17-yl)-2-oxoethoxy)carbonyloxy)-3-methoxybenzoate]
ET-1 induced morphological changes of retinal tissue [1]: not equally present | VEGF content in aqueous humor [2]: 105.79 ± 1.98 pg/mL | EC50 [3]: 2200 nM | Resistence Index ([4]; After 2 weeks (before drug instillation, T2)): 0.43 ± 0.08 | Resistence Index ([4]; After 6 weeks (end of drug treatment), 0.5 mg (equivalent)/eye IVT): 0.41 ± 0.03 | Resistence Index ([4]; Basal): 0.43 ± 0.06 | TNFα content in aqueous humor [5]: 18.93 ± 0.98 pg/mL | IL6 content in aqueous humor [6]: 15.70 ± 1.73 pg/mL | inhibition of VEGF-induced leakage ([7]; 42.4 μg/eye intravitreal (equimolar to 25 μg/eye FC), 18 hours after injection): 77.1%

SMILES: COc1cc(C(=O)OCCCCC(CO[N+](=O)[O-])O[N+](=O)[O-])ccc1OC(=O)OCC(=O)[C@@]12OC(C)(C)O[C@@H]1CC1C3C[C@H](F)C4=CC(=O)C=C[C@]4(C)[C@@]3(F)[C@@H](O)C[C@@]12C (stereo partly drawn) [Compound (3), 5,6-bis(nitrooxy)hexyl 4-((2-((6S,9R,10S,11S,13S,16R,17S)-6,9-difluoro-11-hydroxy-16,17-((1-methylethylidene)bis(oxy))-10,13-dimethyl-3-oxo-6,7,8,9,10,11,12,13,14,15,16,17-dodecahydro-3H-cyclopenta[a]phenanthren-17-yl)-2-oxoethoxy)carbonyloxy)-3-methoxybenzoate]
EC50 [3, 9]: 210 ± 70 nM

SMILES: COc1cc(C(=O)OCCOCCOCCO[N+](=O)[O-])ccc1OC(=O)OCC(=O)[C@@]12OC(C)(C)O[C@@H]1CC1C3C[C@H](F)C4=CC(=O)C=C[C@]4(C)[C@@]3(F)[C@@H](O)C[C@@]12C (stereo partly drawn) [Compound (5), 2-(2-(2-(nitrooxy)ethoxy)ethoxy)ethyl 4-((2-((6S,9R,10S,11S,13S,16R,17S)-6,9-difluoro-11-hydroxy-16,17-((1-methylethylidene)bis(oxy))-10,13-dimethyl-3-oxo-6,7,8,9,10,11,12,13,14,15,16,17-dodecahydro-3H-cyclopenta[a]phenanthren-17-yl)-2-oxoethoxy)carbonyloxy)-3-methoxybenzoate]
EC50 [3, 9]: 830 ± 250 nM

SMILES: CC1(C)O[C@@H]2CC3C4C[C@H](F)C5=CC(=O)C=C[C@]5(C)[C@@]4(F)[C@@H](O)C[C@]3(C)[C@]2(C(=O)COC(=O)Oc2cc(C(=O)OCCCCO[N+](=O)[O-])cc(O)c2O)O1 (stereo partly drawn) [Compound (6), 4-(nitrooxy)butyl 3-((2-((6S,9R,10S,11S,13S,16R,17S)-6,9-difluoro-11-hydroxy-16,17-((1-methylethylidene)bis(oxy))-10,13-dimethyl-3-oxo-6,7,8,9,10,11,12,13,14,15,16,17-dodecahydro-3H-cyclopenta[a]phenanthren-17-yl)-2-oxoethoxy)carbonyloxy)-4,5-dihydroxybenzoate]
EC50 [3, 9]: 1440 ± 410 nM

SMILES: CC1(C)O[C@@H]2CC3C4CCC5=CC(=O)C=C[C@]5(C)[C@@]4(F)[C@@H](O)C[C@]3(C)[C@]2(C(=O)COC(=O)Oc2cc(C(=O)OCCCCO[N+](=O)[O-])cc(O)c2O)O1 (stereo partly drawn) [Compound (10), 4-(nitrooxy)butyl 3-((2-((9R,10S,11S,13S,16R,17S)-9-fluoro-11-hydroxy-16,17-((1-methylethylidene)bis(oxy))-10,13-dimethyl-3-oxo-6,7,8,9,10,11,12,13,14,15,16,17-dodecahydro-3H-cyclopenta[a]phenanthren-17-yl)-2-oxoethoxy)carbonyloxy)-4,5-dihydroxybenzoate]
EC50 [3, 9]: 2350 ± 980 nM

SMILES: COc1cc(C(=O)OCCCCO[N+](=O)[O-])ccc1OC(=O)OCC(=O)[C@@]12OC(C)(C)O[C@@H]1CC1C3CCC4=CC(=O)C=C[C@]4(C)[C@@]3(F)[C@@H](O)C[C@@]12C (stereo partly drawn) [Compound (18), 4-(nitrooxy)butyl 4-((2-((9R,10S,11S,13S,16R,17S)-9-fluoro-11-hydroxy-16,17-(1-methylethylidenebis(oxy))-10,13-dimethyl-3-oxo-6,7,8,9,10,11,12,13,14,15,16,17-dodecahydro-3H-cyclopenta[a]phenanthren-17-yl)-2-oxoethoxy)carbonyloxy)-3-methoxybenzoate]
EC50 [3, 9]: 1560 nM | reduction of VEGF-induced leakage ([7]; dose equivalent to 10 μg/eye triamcinolone acetonide, intravitreal): 54.3%

EC50 (concentration producing 50% of the maximum relaxation) [3, 9]: no effect
SMILES: CC1(C)O[C@@H]2C[C@H]3[C@@H]4CCC5=CC(=O)C=C[C@]5(C)[C@@]4(F)[C@@H](O)C[C@]3(C)[C@]2(C(=O)CO)O1 [TAAC, Triamcinolone acetonide]
reduction of VEGF-induced leakage ([7]; 10 μg/eye intravitreal): 67.5%

IOP compared to compound (1) at 42.4 μg/eye (FIG. 4) [8]: increase in IOP
SMILES: CCCCOC(=O)c1ccc(OC(=O)OCC(=O)C23OC(C)(C)OC2CC2C4CC(F)C5=CC(=O)C=CC5(C)C4(F)C(O)CC23C)c(OC)c1 [des-nitro analog of compound (1), Butyl 4-((2-((6S,9R,10S,11S,13S,16R,17S)-6,9-difluoro-11-hydroxy-16,17-16,17-(1-methylethylidenebis(oxy))-10,13-dimethyl-3-oxo-6,7,8,9,10,11,12,13,14,15,16,17-dodecahydro-3H-cyclopenta[a]phenanthren-17-yl)-2-oxoethoxy)carbonyloxy)-3-methoxybenzoate]
